Measurements reported in US20130252988A1, “COMPOSITIONS AND METHODS FOR TREATING MYELOFIBROSIS” (TARGEGEN, INC., priority 2010, published 2013).
Structures can show the parent of a compound that is named as a salt. Where two headings read alike, the source gives them in different places.

System: subjects with myelofibrosis
[1] = Table 5: treatment-emergent non-hematologic laboratory finding, MTD subjects (N = 40)
[2] = Table 9: AE at least possibly related to TG101348, All Subjects (n = 59)
[3] = Table 9: AE at least possibly related to TG101348, MTD Cohort (n = 40)

SMILES: Cc1cnc(Nc2ccc(OCCN3CCCC3)cc2)nc1Nc1cccc(S(=O)(=O)NC(C)(C)C)c1 [TG101348, N-tert-butyl-3-[(5-methyl-2-{[4-(2-pyrrolidin-1-ylethoxy)phenyl]amino}pyrimidin-4-yl)amino]benzenesulfonamide dihydrochloride monohydrate]
- Hyperkalemia Grade 4, subjects n (%) [1]: 1 (3%)
- Hyperlipasemia Grade 2, subjects n (%) [1]: 4 (10%)
- Hyperlipasemia Grade 3, subjects n (%) [1]: 3 (8%)
- Hyperlipasemia Grade 4, subjects n (%) [1]: 2 (5%)
- Hypocalcemia Grade 2, subjects n (%) [1]: 8 (20%)
- Hypocalcemia Grade 3, subjects n (%) [1]: 3 (8%)
- Hypocalcemia Grade 4, subjects n (%) [1]: 0
- Abdominal pain Severity Grade 1-2, subjects n (%) [2]: 6 (10.2%)
- Abdominal pain Severity Grade 3-4, subjects n (%) [2]: 0
- Alanine aminotransferase increased Severity Grade 1-2, subjects n (%) [2]: 11 (18.6%)
- Alanine aminotransferase increased Severity Grade 3-4, subjects n (%) [2]: 4 (6.8%)
- Anorexia Severity Grade 1-2, subjects n (%) [2]: 8 (13.6%)
- Anorexia Severity Grade 3-4, subjects n (%) [2]: 0
- Aspartate aminotransferase increased Severity Grade 1-2, subjects n (%) [2]: 15 (25.4%)
- Aspartate aminotransferase increased Severity Grade 3-4, subjects n (%) [2]: 1 (1.7%)
- Blood alkaline phosphatase increased Severity Grade 1-2, subjects n (%) [2]: 10 (16.9%)
- Blood alkaline phosphatase increased Severity Grade 3-4, subjects n (%) [2]: 0
- Blood creatinine increased Severity Grade 1-2, subjects n (%) [2]: 14 (23.7%)
- Blood creatinine increased Severity Grade 3-4, subjects n (%) [2]: 0
- Diarrhea Severity Grade 1-2, subjects n (%) [2]: 32 (54.2%)
- Diarrhea Severity Grade 3-4, subjects n (%) [2]: 6 (10.2%)
- Dry skin Severity Grade 1-2, subjects n (%) [2]: 6 (10.2%)
- Dry skin Severity Grade 3-4, subjects n (%) [2]: 0
- Edema peripheral Severity Grade 1-2, subjects n (%) [2]: 6 (10.2%)
- Edema peripheral Severity Grade 3-4, subjects n (%) [2]: 0
- Hyperlipasemia Severity Grade 1-2, subjects n (%) [2]: 10 (16.9%)
- Hyperlipasemia Severity Grade 3-4, subjects n (%) [2]: 6 (10.2%)
- Hypocalcemia Severity Grade 1-2, subjects n (%) [2]: 7 (11.9%)
- Hypocalcemia Severity Grade 3-4, subjects n (%) [2]: 1 (1.7%)
- Nausea Severity Grade 1-2, subjects n (%) [2]: 39 (66.1%)
- Nausea Severity Grade 3-4, subjects n (%) [2]: 2 (3.4%)
- Skin exfoliation Severity Grade 1-2, subjects n (%) [2]: 8 (13.6%)
- Skin exfoliation Severity Grade 3-4, subjects n (%) [2]: 0
- Vomiting Severity Grade 1-2, subjects n (%) [2]: 32 (54.2%)
- Vomiting Severity Grade 3-4, subjects n (%) [2]: 2 (3.4%)
- Abdominal pain Severity Grade 1-2, subjects n (%) [3]: 4 (10.0%)
- Abdominal pain Severity Grade 3-4, subjects n (%) [3]: 0
- Alanine aminotransferase increased Severity Grade 1-2, subjects n (%) [3]: 9 (22.5%)
- Alanine aminotransferase increased Severity Grade 3-4, subjects n (%) [3]: 3 (7.5%)
- Anorexia Severity Grade 1-2, subjects n (%) [3]: 6 (15.0%)
- Anorexia Severity Grade 3-4, subjects n (%) [3]: 0
- Aspartate aminotransferase increased Severity Grade 1-2, subjects n (%) [3]: 13 (32.5%)
- Aspartate aminotransferase increased Severity Grade 3-4, subjects n (%) [3]: 1 (2.5%)
- Blood alkaline phosphatase increased Severity Grade 1-2, subjects n (%) [3]: 9 (22.5%)
- Blood alkaline phosphatase increased Severity Grade 3-4, subjects n (%) [3]: 0
- Blood creatinine increased Severity Grade 1-2, subjects n (%) [3]: 11 (27.5%)
- Blood creatinine increased Severity Grade 3-4, subjects n (%) [3]: 0
- Diarrhea Severity Grade 1-2, subjects n (%) [3]: 25 (62.5%)
- Diarrhea Severity Grade 3-4, subjects n (%) [3]: 5 (12.5%)
- Dry skin Severity Grade 1-2, subjects n (%) [3]: 6 (15%)
- Dry skin Severity Grade 3-4, subjects n (%) [3]: 0
- Edema peripheral Severity Grade 1-2, subjects n (%) [3]: 4 (10.0%)
- Edema peripheral Severity Grade 3-4, subjects n (%) [3]: 0
- Hyperlipasemia Severity Grade 1-2, subjects n (%) [3]: 9 (22.5%)
- Hyperlipasemia Severity Grade 3-4, subjects n (%) [3]: 6 (15.0%)
- Hypocalcemia Severity Grade 1-2, subjects n (%) [3]: 6 (15.0%)
- Hypocalcemia Severity Grade 3-4, subjects n (%) [3]: 1 (2.5%)
